Where two headings read alike, the source gives them in different places.
Key:
5HT2A receptor [1] = target: T1, 5HT2A receptor (Homo sapiens, UniProt P28223); test: biochemical; assay type: binding; set-up: expressed in transfected cells; crude membranes
5HT2A receptor [2] = target: T1, 5HT2A receptor; test: cell-based; set-up: expressed in transfected cells; host or cells: HEK293T cells, transient co-transfection; details: for Emax: HEK-293T
5HT2A receptor [3] = target: T1, 5HT2A receptor; test: cell-based; set-up: expressed in transfected cells; host or cells: HEK293T cells, transient co-transfection; details: for Emax: HEK-293T; remark: listed apart in the source
[4] = BRET1 beta-arrestin2 recruitment, HEK293T cells, read-out: 5HT2A β-Arr EC50
[5] = BRET1 beta-arrestin2 recruitment, HEK293T cells, normalized to 5-HT, read-out: 5HT2A β-Arr Emax (%)
[6] = BRET2 Gαq dissociation, HEK293T cells, read-out: 5HT2A Gq EC50
[7] = BRET2 Gαq dissociation, HEK293T cells, normalized to 5-HT, read-out: 5HT2A Gq Emax (%)
[8] = 5HT2A Ki (nM), secondary radioligand binding, Ki from IC50 by Cheng-Prusoff
[9] = 5HT2A β-Arr EC50 (nM), BRET1 beta-arrestin2 recruitment, HEK293T cells
[10] = 5HT2A Gq EC50 (nM), BRET2 Gαq dissociation, HEK293T cells
[11] = 5HT2A Ki (nM), secondary binding assay, Cheng-Prusoff
[12] = 5HT2A β-Arr EC50 (nM), BRET1 beta-arrestin2 recruitment, HEK293T
[13] = 5HTA Gq EC50 (nM), BRET2 Gαq dissociation, HEK293T
[14] = BRET1 beta-arrestin2 recruitment, HEK293T, normalized to 5-HT, read-out: 5HT2A β-Arr Emax (%)
[15] = BRET2 Gαq dissociation, HEK293T, read-out: 5HTA Gq EC50
[16] = BRET2 Gαq dissociation, HEK293T, normalized to 5-HT, read-out: 5HTA Gq Emax (%)

T1 sequence (P28223 whole entry): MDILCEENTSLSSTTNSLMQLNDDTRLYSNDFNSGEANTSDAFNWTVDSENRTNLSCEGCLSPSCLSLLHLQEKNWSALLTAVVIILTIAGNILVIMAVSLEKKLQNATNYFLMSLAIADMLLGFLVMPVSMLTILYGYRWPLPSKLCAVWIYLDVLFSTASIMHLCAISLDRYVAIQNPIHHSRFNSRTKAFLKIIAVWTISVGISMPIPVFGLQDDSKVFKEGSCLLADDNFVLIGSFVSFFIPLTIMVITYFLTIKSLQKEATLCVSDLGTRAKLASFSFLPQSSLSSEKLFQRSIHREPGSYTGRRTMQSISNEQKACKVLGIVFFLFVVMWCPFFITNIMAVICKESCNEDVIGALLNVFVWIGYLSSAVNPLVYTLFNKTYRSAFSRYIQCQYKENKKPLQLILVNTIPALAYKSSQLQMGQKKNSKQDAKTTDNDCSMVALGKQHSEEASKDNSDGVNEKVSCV

SMILES | Emax (5HT2A receptor [2]; [5]) | Emax (5HT2A receptor [3]; [7]) | Ki (5HT2A receptor [1]; [8]) | EC50 (5HT2A receptor [2]; [9]) | Ki (5HT2A receptor [1]; [11]) | EC50 (5HT2A receptor [2]; [12]) | Emax (5HT2A receptor [2]; [14]) | Emax (5HT2A receptor [3]; [16]) | also measured
Clc1ccc2[nH]nc(C3=CCCNC3)c2c1 [Example 84, 5-chloro-3-(1,2,5,6-tetrahydropyridin-3-yl)-1H-indazole] | 97% | 94.8% | – | – | – | – | – | – | Ki (5HT2A receptor [1]; secondary radioligand binding, Ki from IC50 by Cheng-Prusoff, read-out: 5HT2A Ki): 25.3 nM; EC50 (5HT2A receptor [2]; [4]): 52.4 nM; EC50 (5HT2A receptor [3]; [6]): 3.4 nM
COc1ccc2[nH]nc(C3=CCCN(C)C3)c2c1 [Example 104, 5-methoxy-3-(1-methyl-1,2,5,6-tetrahydropyridin-3-yl)-1H-indazole] | 83.7% | 88.2% | 501 nM | 681 nM | – | – | – | – | EC50 (5HT2A receptor [3]; [6]): 82.8 nM
CN1CCC=C(c2c[nH]c3cc(Cl)ccc23)C1 [Example 32, 6-chloro-3-(1-methyl-1,2,5,6-tetrahydropyridin-3-yl)-1H-indole] | 45.5% | 77.5% | 236 nM | 709 nM | – | – | – | – | EC50 (5HT2A receptor [3]; [10]): 304 nM
[2H]C([2H])([2H])N1CCC=C(c2n[nH]c3c(Cl)cccc23)C1 [Example 150, 7-chloro-3-(1-(methyl-d3)-1,2,5,6-tetrahydropyridin-3-yl)-1H-indazole] | – | – | – | – | 842 nM | 29.9 nM | – | – | Emax (5HT2A receptor [2]; read-out: 5HT2A β-Arr Emax (%), BRET1 beta-arrestin2 recruitment, HEK293T, normalized to 5-HT): 60.9%; EC50 (5HT2A receptor [3]; [13]): 13.3 nM; Emax (5HT2A receptor [3]; read-out: 5HTA Gq Emax (%), BRET2 Gαq dissociation, HEK293T, normalized to 5-HT): 95.3%
CCCN1CCC=C(c2c[nH]c3c(C#N)cccc23)C1 [Example 157, 3-(1-propyl-1,2,5,6-tetrahydropyridin-3-yl)-1H-indole-7-carbonitrile] | – | – | – | – | 164 nM | 500 nM | 39.3% | 78% | EC50 (5HT2A receptor [3]; [15]): 93 nM
Cc1cccc2c(C3CN(C)C3)c[nH]c12 [Example 261, 7-methyl-3-(1-methylazetidin-3-yl)-1H-indole] | – | – | – | – | 1680 nM | 1650 nM | 26.1% | 69.3% | EC50 (5HT2A receptor [3]; [13]): 196 nM
Fc1ccnc2[nH]cc(C3=CCCNC3)c12 [Example 119, 4-fluoro-3-(1,2,5,6-tetrahydropyridin-3-yl)-1H-pyrrolo[2,3-b]pyridine] | 53.8% | 88.2% | 844 nM | 1520 nM | – | – | – | – | EC50 (5HT2A receptor [3]; [10]): 193 nM
OCCN1CCC=C(c2n[nH]c3c(Cl)cccc23)C1 [Example 168, 2-(5-(7-chloro-1H-indazol-3-yl)-3,6-dihydropyridin-1(2H)-yl)ethan-1-ol] | – | – | – | – | 8640 nM | 1050 nM | 41.6% | 68.2% | EC50 (5HT2A receptor [3]; [13]): 183 nM
CN1CC=C(c2n[nH]c3c(Cl)cccc23)C1 [Example 207, 7-chloro-3-(1-methyl-2,5-dihydro-1H-pyrrol-3-yl)-1H-indazole] | – | – | – | – | 203 nM | 129 nM | 47.8% | 94.7% | EC50 (5HT2A receptor [3]; [15]): 50.9 nM
CN1CCCC(c2c[nH]c3c(Cl)cccc23)C1 (single isomer, unassigned) [Example 113, 7-chloro-3-(1-methylpiperidin-3-yl)-1H-indole] | – | – | 1430 nM | 1520 nM | – | – | – | – | Emax (5HT2A receptor [2]; read-out: 5HT2A β-Arr Emax (%), BRET1 beta-arrestin2 recruitment, HEK293T cells, normalized to 5-HT): 62.6%; EC50 (5HT2A receptor [3]; [10]): 279 nM; Emax (5HT2A receptor [3]; read-out: 5HT2A Gq Emax (%), BRET2 Gαq dissociation, HEK293T cells, normalized to 5-HT): 84.9%
CCCN1CC=C(c2n[nH]c3c(Cl)cccc23)C1 [Example 213, 7-chloro-3-(1-propyl-2,5-dihydro-1H-pyrrol-3-yl)-1H-indazole] | – | – | – | – | 1770 nM | 211 nM | 31.5% | 61.3% | EC50 (5HT2A receptor [3]; [15]): 72.7 nM
CC(C)N1CC=C(c2n[nH]c3c(Cl)cccc23)C1 [Example 219, 7-chloro-3-(1-isopropyl-2,5-dihydro-1H-pyrrol-3-yl)-1H-indazole] | – | – | – | – | 313 nM | 537 nM | 71.9% | 55.5% | EC50 (5HT2A receptor [3]; [15]): 25.5 nM
CCc1cccc2c(C3=CCCNC3)c[nH]c12 [Example 50, 7-ethyl-3-(1,2,5,6-tetrahydropyridin-3-yl)-1H-indole] | 79.1% | 92.6% | 244 nM | – | – | – | – | – | EC50 (5HT2A receptor [2]; [4]): 67 nM; EC50 (5HT2A receptor [3]; [6]): 4.7 nM
CCc1[nH]c2ccccc2c1C1=CCCNC1 [Example 62, 2-ethyl-3-(1,2,5,6-tetrahydropyridin-3-yl)-1H-indole] | 45.1% | 49.1% | 810 nM | 633 nM | – | – | – | – | EC50 (5HT2A receptor [3]; [6]): 75.7 nM
